# Assays:
# PPARγ = molecular target: T1, PPARγ (Homo sapiens, UniProt P37231); assay: PPARγ activation assay (gal4 PPARγ reporter gene) in PC12 cells; format: cell-based; conditions: 25 μM, n=10
# T1 construct: GAL4 (fusion partner); expressed in transfected cells; host or cells: PC12 cells, transiently transfected with Lipofectamine 2000
# T1 sequence (P37231 238-503 limits assumed): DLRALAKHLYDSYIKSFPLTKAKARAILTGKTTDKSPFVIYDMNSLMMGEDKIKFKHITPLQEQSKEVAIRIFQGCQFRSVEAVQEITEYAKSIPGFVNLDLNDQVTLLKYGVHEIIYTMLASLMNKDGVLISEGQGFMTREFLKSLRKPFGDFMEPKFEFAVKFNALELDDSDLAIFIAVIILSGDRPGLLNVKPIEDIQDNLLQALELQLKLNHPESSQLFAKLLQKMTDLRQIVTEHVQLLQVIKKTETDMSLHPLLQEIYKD
# Procedure: In the PPARγ activation assay, an assay with the reporter gene gal4 PPARγ is performed, which allow assessing the activation of PPARγ induced by ligand, to which end concentrations of 30 and 60 μg/mL were used. PC12 cells were seeded in a 48-well plate at a density of 100,000 cells/well/250 μL of maintenance medium containing the medium RPMI1640® (Roswell Park Memorial Institute-1640 Medium) supplemented with 10% of horse serum (HS), 5% of fetal bovine serum (FBS) and 1× antibiotic/antimicotic (Ab-Am). Then, the DNA (0.8 μg luciferase plasmid (MH100tkLUC), 0.8 μg PPARγGAL4 plasmid and 0.053 μg β-galactosidase plasmid, (β-Gal)) were mixed in OptiMEM® (Opti-Minimun Essential Medium). This constitutes the DNA mixture. In parallel, lipofectamine 2000 was diluted in OptiMEM®. This constitutes the Lipofectamine® mixture. […] The lysate was collected, centrifuged for 1 minute at 14000 rpm, the β-galactosidase and luciferase activity in the supernatant was measured, and the times of PPARγ activation was calculated relative to the DMSO control (final concentration in the medium of 0.1%). In parallel, the activity of β-galactosidase was assessed (colorimetry). […] The activity results were expressed as times of increase in relation to the activity obtained with control cells (treated only with DMSO). […]
# 3T3-L1 cells [1] = assay: Differentiation of 3T3-L1 cells into adipocytes, Oil Red O accumulation; format: cell-based; conditions: 25 μM, 3T3-L1, day 10, n=4
# Procedure: (§1) In order to assess the effect of the claimed extracts on differentiation of fibroblasts into adipocytes, 3T3-L1 cells are cultured at low passage, avoiding cells from reaching confluence. […] Thereafter, the maintenance medium was replaced.
# 3T3-L1 cells [2] = assay: MTT viability assay in 3T3-L1 cells of the differentiation assay; format: cell-based; conditions: 25 μM, 3T3-L1, n=3
# Procedure: In order to assess the effect of the claimed extracts on differentiation of fibroblasts into adipocytes, 3T3-L1 cells are cultured at low passage, avoiding cells from reaching confluence. […] Thereafter, the maintenance medium was replaced. […] After removing MTT, DMSO (99.9%) was added to lyse cells and dissolve MTT/MTT formazan. In order to assess absorbance at 570 nm and 620 nm in a spectrophotometer, 100 μl of this solution were moved to a 96-well plate. The difference between absorbances was calculated, and the survival relative to the control (DMSO) was determined.
# fabp4 gene = assay: mRNA expression of adipocyte differentiation marker fabp4 in 3T3-L1 cells (qPCR); format: cell-based; conditions: 25 μM, 3T3-L1, day 7, n=3
# Procedure: as §1
# cortical neurons = assay: Neuroprotection assay: cortical neurons damaged with oligomycin A, MTT viability; format: cell-based, rat
# Description: To assess the neuroprotective capacity of Extract B, a model of neuronal damage caused by chemical ischemia was used, preferably the model of damage caused by oligomycin A. Oligomycin A is a macrolide that blocks oxidative phosphorylation, inhibiting mitochondrial ATP synthase.
# In order to assess the neuroprotective capacity, a primary culture of cortical neurons of stage E18 rat embryos was used. To this end, adult female rats were acquired, pregnant at stage 18, from the CINBIOT bioterium of the Faculty of Biological Science, Pontificia Universidad Católica de Chile. […]
# On the 9th of culture, the challenge with oligomycin A was carried out. […] Thereafter, neuronal viability was determined, by removing the entire culture medium, it was washed once with PBS and incubated with 0.5 mg/mL of MTT in neurobasal medium without phenol red at 37° C. for 2 hours to establish the mitochondrial activity, wherein MTT (yellow) is transformed into MTT formazan (dark blue), when reduced by live cells. […] Subsequently, 100 μl of this solution were moved to a 96-wel plate to measure absorbance at 570 nm and 620 nm in spectrophotometer. The difference between absorbances (570-620) was calculated, and the survival was estimated relative to the control treated with DMSO and without damage caused by oligomycin A. The presence of MTT formazan is quantified at 570 nm. […]
molecule,measurement,setting,value
CC(C)C[C@H](NC(=O)OCC1c2ccccc2-c2ccccc21)C(=O)O [FMOC-Leu],"PPARγ transcriptional activity, times higher than negative control",PPARγ,14.7 times
same,"Oil Red O (neutral lipid) accumulation, times relative to control",3T3-L1 cells [1],1.1
same,cell survival (MTT) relative to control (DMSO),3T3-L1 cells [2],100%
same,"fabp4 mRNA expression, times relative to control DMSO",fabp4 gene,1.7 times
"CC[C@@H]1/C=C/C=C/C[C@H](C)[C@H](O)[C@](C)(O)C(=O)[C@H](C)[C@@H](O)[C@H](C)C(=O)[C@H](C)[C@@H](O)[C@H](C)/C=C/C(=O)O[C@H]2[C@@H](C)[C@@H](CC1)O[C@@]1(CC[C@@H](C)[C@@H](C[C@H](C)O)O1)[C@@H]2C [oligomycin A, Oligomycin A]","neuronal viability after oligomycin A, % of undamaged DMSO control","cortical neurons; oligomycin A 2 μM 30 min, no extract, rat cortical neurons",22.5%
vitamin E,protection against oligomycin A,"cortical neurons; 10 μM alone, data not shown",does not provide protection
